Values quoted from earlier work, collected in US20040157330A1, “Compositions and methods for targeted biological delivery of molecular carriers” (Arizeke Pharmaceuticals, Inc., priority 2003, published 2004).

Target: human transferrin receptor (Homo sapiens, UniProt P02786)
Details: for binding to the human transferrin receptor: without inhibiting transferrin binding

human transferrin receptor, sequence (P02786 whole entry): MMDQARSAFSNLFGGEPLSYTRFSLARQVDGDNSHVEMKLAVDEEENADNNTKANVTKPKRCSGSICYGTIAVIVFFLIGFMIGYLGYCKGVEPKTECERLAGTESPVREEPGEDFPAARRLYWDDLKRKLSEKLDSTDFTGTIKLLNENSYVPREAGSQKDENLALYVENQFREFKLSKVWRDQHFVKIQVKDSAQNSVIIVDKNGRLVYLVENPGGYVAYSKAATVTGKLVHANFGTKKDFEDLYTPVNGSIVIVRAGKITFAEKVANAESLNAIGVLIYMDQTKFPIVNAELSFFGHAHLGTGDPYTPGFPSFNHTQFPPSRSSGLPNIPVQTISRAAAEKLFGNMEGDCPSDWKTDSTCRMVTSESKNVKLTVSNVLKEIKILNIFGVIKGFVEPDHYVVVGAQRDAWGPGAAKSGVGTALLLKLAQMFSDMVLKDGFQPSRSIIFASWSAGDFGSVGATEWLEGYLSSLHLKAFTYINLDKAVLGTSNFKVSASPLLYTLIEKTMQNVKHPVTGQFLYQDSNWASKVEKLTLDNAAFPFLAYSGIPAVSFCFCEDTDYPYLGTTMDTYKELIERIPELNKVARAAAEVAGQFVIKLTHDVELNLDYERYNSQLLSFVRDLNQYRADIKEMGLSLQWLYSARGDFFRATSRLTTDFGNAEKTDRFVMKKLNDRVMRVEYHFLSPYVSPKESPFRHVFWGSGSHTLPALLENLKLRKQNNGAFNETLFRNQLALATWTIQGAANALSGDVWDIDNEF

Substance: HAIYPRH
- binding to the human transferrin receptor: bind specifically

Substance: THRPPMWSPVWP
- Kd (calculated, similar to the binding affinity of transferrin): 15 nM
- binding to the human transferrin receptor: bind specifically
